Results taken from article PMC3639963, “A New Class of Small Molecule Inhibitor of BMP Signaling” (PLoS ONE, 2013).
Read-outs that look alike come from different tables or passages of the source. Each block holds one compound with its values, some of them ahead of it.

Assays:
KDR = tested on: KDR; parameters: method as in PMID 20020776; details: read-out: reported KDR IC50; cited from earlier work
[1] = tested on: BMP6-induced Smad1/5/8 phosphorylation in C2C12 cells; assay: BMP6-induced Smad1/5/8 phosphorylation, Western blot; format: cell-based; details: for inhibition of BMP6-induced Smad1/5/8 phosphorylation: qualitative
Experimental: (§1) C2C12 and HEK293 cells were grown in DMEM supplemented with 10% FCS (PAA) and seeded at a density of 1 x 10^5 cells per well in 6-well plates. The next day the cells were starved in DMEM containing 1% FCS for 5 hours. Inhibitors were added at the indicated concentrations for 30 minutes followed by 10 ng/mL BMP4 (Peprotech), 100 ng/mL BMP6 (Peprotech), 100 ng/mL Activin A (Peprotech) or 2 ng/mL TGF-β1 (Cell Signaling) for 1 hour. Cells were washed in PBS and lysed on ice for 30 minutes in lysis buffer (20 mM Tris-HCl pH 7.5, 150 mM NaCl, 1% Triton X-100, 25 mM NaF, 25 mM Na β-glycerophosphate, 2 mM Na3VO4) containing protease inhibitors (Roche). Protein concentration in the clarified lysate was determined by Bradford Assay (Pierce) and 15 µg run on 4–12% Bis-Tris gel (Biorad). The protein was transferred onto nitrocellulose membrane (GE Healthcare) and probed with the relevant antibody at 4°C overnight (Cell Signaling: anti-Smad 1 (#9743), anti-P-Smad 1/5/8 (#9511), anti-Smad 2 (#5339), anti-P-Smad 2 (#3101). After subsequent incubation with HRP-conjugated anti-rabbit antibody, protein bands were detected using ECL (Pierce) and an LAS4000 image reader. Cells were purchased originally from the European Collection of Cell Cultures (ECACC) available through Sigma.

[2] = tested on: TGF-β-induced phosphorylation of Smad2 in C2C12 cells; assay: TGF-β-induced phosphorylation of Smad2, Western blot; format: cell-based; details: qualitative
Experimental: as §1

[3] = tested on: BMP4 induced Smad1/5/8 phosphorylation in C2C12 cells; assay: BMP4 induced Smad1/5/8 phosphorylation, Western blot; format: cell-based; details: for IC50: Mus musculus
Experimental: as §1

BRAF = molecular target: T1, BRAF (Homo sapiens, UniProt P15056); assay: Nanosyn kinase profiling; format: biochemical; details: read-out: Percentage inhibition
T1 construct: purchased Nanosyn (enzymatic panel); SGC in-house recombinant human kinases (DSF panel); Invitrogen (ALK1-6)
Experimental: (§2) Percentage inhibition was determined for each kinase at both 0.1 µM and 1 µM inhibitor concentration (supplemental Table S2).
(§3) Inhibitor selectivity profiling against 200 human kinases at 0.1 and 1 µM inhibitor concentration was performed by Nanosyn (www.nanosyn.com).

MAP4K4 = molecular target: T2, MAP4K4 (Homo sapiens, UniProt O95819); assay: Nanosyn kinase profiling; format: biochemical; details: read-out: Percentage inhibition
T2 construct: purchased Nanosyn (enzymatic panel); SGC in-house recombinant human kinases (DSF panel); Invitrogen (ALK1-6)
Experimental: as §2, §3

MINK = molecular target: T3, MINK (Homo sapiens, UniProt Q8N4C8); assay: Nanosyn kinase profiling; format: biochemical; details: read-out: Percentage inhibition
T3 construct: purchased Nanosyn (enzymatic panel); SGC in-house recombinant human kinases (DSF panel); Invitrogen (ALK1-6)
Experimental: as §2, §3

FMS = molecular target: T4, FMS (Homo sapiens, UniProt P07333); assay: Nanosyn kinase profiling; format: biochemical; details: read-out: Percentage inhibition
T4 construct: purchased Nanosyn (enzymatic panel); SGC in-house recombinant human kinases (DSF panel); Invitrogen (ALK1-6)
Experimental: as §2, §3

FLT3 = molecular target: T5, FLT3 (Homo sapiens, UniProt P36888); assay: Nanosyn kinase profiling; format: biochemical; details: read-out: Percentage inhibition
T5 construct: purchased Nanosyn (enzymatic panel); SGC in-house recombinant human kinases (DSF panel); Invitrogen (ALK1-6)
Experimental: as §2, §3

[4] = tested on: Activin A-induced P-Smad2 in HEK293 cells; assay: Activin A-induced P-Smad2, Western blot; format: cell-based; details: for inhibition of Smad2 phosphorylation: 0.5 µM, Activin A; for inhibition of Activin A-induced P-Smad2: qualitative
Experimental: as §1

DDR2 = molecular target: T6, DDR2 (Homo sapiens, UniProt Q16832); assay: Nanosyn kinase profiling; format: biochemical; details: read-out: Percentage inhibition; for inhibition at 0.1 µM: 0.1 µM inhibitor; for inhibition at 1 µM: 1 µM inhibitor
T6 construct: purchased Nanosyn (enzymatic panel); SGC in-house recombinant human kinases (DSF panel); Invitrogen (ALK1-6)
T6 sequence (Q16832 22-855): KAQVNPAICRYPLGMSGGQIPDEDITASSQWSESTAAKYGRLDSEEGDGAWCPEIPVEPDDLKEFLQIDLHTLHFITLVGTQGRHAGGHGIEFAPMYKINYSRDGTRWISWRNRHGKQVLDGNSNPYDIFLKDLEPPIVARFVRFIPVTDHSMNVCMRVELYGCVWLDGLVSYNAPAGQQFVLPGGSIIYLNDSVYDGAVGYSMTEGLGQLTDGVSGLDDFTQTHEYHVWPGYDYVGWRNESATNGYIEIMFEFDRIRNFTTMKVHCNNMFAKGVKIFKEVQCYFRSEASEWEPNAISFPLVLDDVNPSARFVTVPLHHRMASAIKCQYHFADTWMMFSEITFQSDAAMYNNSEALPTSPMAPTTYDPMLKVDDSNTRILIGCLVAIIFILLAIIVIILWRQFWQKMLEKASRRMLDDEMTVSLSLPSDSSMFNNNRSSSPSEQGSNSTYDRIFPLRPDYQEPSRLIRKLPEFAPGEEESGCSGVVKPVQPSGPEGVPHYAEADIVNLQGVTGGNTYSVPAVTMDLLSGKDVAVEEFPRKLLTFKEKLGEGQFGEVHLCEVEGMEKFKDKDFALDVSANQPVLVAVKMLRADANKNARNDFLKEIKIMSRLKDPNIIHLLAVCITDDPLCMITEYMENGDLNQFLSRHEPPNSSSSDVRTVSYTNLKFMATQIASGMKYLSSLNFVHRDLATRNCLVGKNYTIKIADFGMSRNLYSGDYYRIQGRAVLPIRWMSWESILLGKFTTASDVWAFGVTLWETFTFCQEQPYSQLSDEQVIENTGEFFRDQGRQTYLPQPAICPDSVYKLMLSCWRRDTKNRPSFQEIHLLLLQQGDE
Outline: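 Percent inhibition of each kinase was measured with the inhibitor at 0.1 µM and at 1 µM, as part of a 200-kinase human selectivity panel.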

[5] = tested on: BMP4 response (BRE-luciferase) in C2C12 cells; assay: BRE-luciferase reporter assay; format: cell-based
Experimental: C2C12 cells were co-transfected using lipofectamine 2000 with BRE-luciferase and Renilla Luciferase pRLTK (Promega) following the manufacturer’s instructions. 16 hours post transfection cells were starved in DMEM containing 1% FCS for 5 hours. Inhibitors were added to triplicate wells at the indicated concentrations for 30 minutes, followed by overnight stimulation with 10 ng/ml BMP4 (Peprotech). Luciferase activities were determined according to the Dual-Luciferase® Reporter Assay System (Promega) using Renilla for normalization of transfection efficiency.

T3 sequence (Q8N4C8 whole entry): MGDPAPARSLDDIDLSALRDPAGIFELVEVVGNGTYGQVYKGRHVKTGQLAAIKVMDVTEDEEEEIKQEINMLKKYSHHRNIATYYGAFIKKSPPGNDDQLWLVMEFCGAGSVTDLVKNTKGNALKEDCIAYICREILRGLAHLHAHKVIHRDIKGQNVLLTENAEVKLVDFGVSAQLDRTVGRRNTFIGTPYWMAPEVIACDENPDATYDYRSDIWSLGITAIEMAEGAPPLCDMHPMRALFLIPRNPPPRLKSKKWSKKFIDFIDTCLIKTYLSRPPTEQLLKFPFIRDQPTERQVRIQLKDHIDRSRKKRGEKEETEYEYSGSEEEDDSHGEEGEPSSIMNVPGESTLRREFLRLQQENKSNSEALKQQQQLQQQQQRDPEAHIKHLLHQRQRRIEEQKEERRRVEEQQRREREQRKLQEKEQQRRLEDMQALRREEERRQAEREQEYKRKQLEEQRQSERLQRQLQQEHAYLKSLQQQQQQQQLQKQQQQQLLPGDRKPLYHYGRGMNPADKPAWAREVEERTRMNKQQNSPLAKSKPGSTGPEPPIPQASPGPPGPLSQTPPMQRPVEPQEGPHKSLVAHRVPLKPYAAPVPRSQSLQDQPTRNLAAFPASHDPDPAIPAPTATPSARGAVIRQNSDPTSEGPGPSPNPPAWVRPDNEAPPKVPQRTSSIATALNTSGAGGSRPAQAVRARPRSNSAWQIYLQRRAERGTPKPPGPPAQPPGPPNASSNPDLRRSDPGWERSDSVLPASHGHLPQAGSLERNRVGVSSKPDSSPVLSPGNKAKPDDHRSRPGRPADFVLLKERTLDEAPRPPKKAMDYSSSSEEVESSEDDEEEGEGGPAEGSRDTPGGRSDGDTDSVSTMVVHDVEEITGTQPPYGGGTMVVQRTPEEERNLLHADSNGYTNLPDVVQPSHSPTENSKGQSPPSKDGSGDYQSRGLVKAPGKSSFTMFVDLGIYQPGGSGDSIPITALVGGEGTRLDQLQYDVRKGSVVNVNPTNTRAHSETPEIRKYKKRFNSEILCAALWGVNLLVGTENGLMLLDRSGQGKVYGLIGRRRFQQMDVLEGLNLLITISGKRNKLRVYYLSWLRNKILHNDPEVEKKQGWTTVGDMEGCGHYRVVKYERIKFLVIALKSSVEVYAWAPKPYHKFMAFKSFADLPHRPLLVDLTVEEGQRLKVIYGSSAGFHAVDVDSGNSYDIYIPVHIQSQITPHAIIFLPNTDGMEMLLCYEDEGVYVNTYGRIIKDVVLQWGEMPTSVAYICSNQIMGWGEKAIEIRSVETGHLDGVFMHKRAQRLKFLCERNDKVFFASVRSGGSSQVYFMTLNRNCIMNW
T2 sequence (O95819 whole entry): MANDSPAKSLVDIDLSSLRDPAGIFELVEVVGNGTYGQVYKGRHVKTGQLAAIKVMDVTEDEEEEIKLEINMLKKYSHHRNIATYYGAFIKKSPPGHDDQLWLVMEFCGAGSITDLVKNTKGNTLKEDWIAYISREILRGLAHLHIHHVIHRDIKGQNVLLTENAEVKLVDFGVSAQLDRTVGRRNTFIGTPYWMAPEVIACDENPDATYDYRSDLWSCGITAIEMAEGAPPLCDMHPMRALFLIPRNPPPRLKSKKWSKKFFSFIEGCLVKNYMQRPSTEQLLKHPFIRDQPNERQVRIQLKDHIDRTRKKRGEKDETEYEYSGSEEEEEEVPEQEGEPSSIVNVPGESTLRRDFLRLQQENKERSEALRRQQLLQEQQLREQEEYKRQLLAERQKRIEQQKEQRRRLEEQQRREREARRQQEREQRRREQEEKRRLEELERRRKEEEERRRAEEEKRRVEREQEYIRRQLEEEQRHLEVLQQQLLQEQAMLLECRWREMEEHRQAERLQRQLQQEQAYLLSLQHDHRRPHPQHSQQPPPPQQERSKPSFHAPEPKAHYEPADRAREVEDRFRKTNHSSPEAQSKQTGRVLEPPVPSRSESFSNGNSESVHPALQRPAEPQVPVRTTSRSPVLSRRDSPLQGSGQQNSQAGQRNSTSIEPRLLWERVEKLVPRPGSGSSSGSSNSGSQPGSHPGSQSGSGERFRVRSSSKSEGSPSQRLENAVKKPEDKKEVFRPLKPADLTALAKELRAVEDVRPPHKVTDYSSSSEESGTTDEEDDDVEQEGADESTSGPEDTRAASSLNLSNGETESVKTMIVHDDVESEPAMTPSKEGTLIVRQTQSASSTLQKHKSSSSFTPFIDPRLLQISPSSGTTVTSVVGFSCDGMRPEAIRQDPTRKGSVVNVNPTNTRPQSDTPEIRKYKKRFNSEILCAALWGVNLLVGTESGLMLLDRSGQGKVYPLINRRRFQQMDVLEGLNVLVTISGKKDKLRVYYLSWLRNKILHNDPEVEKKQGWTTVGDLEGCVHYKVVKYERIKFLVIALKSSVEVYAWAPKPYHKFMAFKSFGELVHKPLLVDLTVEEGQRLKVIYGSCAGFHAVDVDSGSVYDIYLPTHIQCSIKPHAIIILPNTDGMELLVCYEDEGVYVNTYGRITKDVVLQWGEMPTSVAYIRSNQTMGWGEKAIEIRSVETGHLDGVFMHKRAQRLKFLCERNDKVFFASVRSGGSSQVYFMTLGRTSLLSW
T4 sequence (P07333 20-972): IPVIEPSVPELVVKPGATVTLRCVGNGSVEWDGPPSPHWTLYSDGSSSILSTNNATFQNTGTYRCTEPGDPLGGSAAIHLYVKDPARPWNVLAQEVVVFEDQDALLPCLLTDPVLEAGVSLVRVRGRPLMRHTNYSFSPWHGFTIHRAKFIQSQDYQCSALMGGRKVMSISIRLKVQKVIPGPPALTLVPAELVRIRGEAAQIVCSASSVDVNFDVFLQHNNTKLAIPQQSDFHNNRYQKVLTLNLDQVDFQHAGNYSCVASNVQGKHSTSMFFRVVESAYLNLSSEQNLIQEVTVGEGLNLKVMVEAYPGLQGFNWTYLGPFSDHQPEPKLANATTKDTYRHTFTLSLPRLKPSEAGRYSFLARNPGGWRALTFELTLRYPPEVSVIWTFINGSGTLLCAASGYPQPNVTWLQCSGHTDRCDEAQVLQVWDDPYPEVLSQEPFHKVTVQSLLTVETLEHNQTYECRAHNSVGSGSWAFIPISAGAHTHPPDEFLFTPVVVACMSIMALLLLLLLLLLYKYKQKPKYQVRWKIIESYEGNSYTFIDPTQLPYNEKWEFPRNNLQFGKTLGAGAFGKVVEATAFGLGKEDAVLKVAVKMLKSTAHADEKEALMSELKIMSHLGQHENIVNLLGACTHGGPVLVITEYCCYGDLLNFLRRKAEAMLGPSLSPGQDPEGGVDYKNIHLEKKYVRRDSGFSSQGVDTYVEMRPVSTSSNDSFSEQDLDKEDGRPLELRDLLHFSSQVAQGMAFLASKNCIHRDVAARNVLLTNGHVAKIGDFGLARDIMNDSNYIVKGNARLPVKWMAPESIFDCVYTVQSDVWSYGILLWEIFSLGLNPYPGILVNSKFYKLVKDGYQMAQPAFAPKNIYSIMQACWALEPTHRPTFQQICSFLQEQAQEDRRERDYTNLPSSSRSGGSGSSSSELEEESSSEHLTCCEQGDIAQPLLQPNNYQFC
T5 sequence (P36888 27-993): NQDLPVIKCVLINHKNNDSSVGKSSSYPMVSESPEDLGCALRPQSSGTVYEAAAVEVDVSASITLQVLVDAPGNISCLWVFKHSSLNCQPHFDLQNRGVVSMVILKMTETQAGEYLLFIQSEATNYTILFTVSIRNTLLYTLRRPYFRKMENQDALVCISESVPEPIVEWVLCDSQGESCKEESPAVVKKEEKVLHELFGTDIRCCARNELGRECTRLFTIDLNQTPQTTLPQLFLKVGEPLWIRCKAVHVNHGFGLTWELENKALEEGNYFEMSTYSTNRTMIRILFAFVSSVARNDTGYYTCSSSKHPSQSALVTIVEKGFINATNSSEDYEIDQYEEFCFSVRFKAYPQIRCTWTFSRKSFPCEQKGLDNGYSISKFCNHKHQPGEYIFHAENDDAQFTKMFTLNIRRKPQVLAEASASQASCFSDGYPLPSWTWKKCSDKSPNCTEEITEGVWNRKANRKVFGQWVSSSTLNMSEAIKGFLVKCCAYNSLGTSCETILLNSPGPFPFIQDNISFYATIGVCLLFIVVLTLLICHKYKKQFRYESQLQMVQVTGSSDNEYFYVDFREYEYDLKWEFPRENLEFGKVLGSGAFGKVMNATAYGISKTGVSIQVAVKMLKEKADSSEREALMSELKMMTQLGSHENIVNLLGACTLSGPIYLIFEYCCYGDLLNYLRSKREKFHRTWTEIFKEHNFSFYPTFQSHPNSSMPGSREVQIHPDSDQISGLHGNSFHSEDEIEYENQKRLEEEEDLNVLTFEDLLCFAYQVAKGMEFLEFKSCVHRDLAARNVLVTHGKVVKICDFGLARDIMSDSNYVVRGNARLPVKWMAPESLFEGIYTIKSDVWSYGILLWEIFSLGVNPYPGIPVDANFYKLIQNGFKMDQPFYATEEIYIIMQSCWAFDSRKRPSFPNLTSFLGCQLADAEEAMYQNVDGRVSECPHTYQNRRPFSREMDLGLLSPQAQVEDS

SMILES: c1cc(-c2cnn3cc(-c4ccc(OCCN5CCCCC5)cc4)cnc23)ccn1 [Dorsomorphin]
IC50 (KDR): 25 nM

IC50 ([1]; Mus musculus, read-out: IC50 against BMP6 signaling): < 50 nM
IC50 ([3]; C2C12 cells, BMP4 stimulation, read-out: apparent IC50, Smad1/5/8 phosphorylation): 100 nM
inhibition at 0.1 µM (BRAF; 0.1 µM inhibitor): 0%
inhibition at 1 µM (BRAF; 1 µM inhibitor): 12%
inhibition at 0.1 µM (MAP4K4; 0.1 µM inhibitor): 46%
inhibition at 1 µM (MAP4K4; 1 µM inhibitor): 89%
inhibition at 0.1 µM (MINK; 0.1 µM inhibitor): 36%
inhibition at 1 µM (MINK; 1 µM inhibitor): 86%
inhibition at 0.1 µM (FMS; 0.1 µM inhibitor): 6.1%
inhibition at 1 µM (FMS; 1 µM inhibitor): 33%
inhibition at 0.1 µM (FLT3; 0.1 µM inhibitor): -2%
inhibition at 1 µM (FLT3; 1 µM inhibitor): 0.4%
inhibition at 0.1 µM (DDR2): 0%
inhibition at 1 µM (DDR2): 11%
SMILES: COc1cc(-c2cc(-c3cccc(O)c3)cnc2N)cc(OC)c1OC [K02288, 3-[6-amino-5-(3,4,5-trimethoxy-phenyl)-pyridin-3-yl]-phenol]
inhibition of Smad1/5/8 phosphorylation ([1]; 50 nM, BMP6): near complete inhibition
inhibition of BMP6-induced Smad1/5/8 phosphorylation [1]: potently inhibited
effect on TGF-β-induced phosphorylation of Smad2 [2]: no effect
activity weaker than control compound LDN-193189 ([3]; C2C12 cells, BMP4, P-Smad1/5/8): 10 fold
inhibition of Smad2 phosphorylation [4]: near complete inhibition
inhibition of Activin A-induced P-Smad2 [4]: weakly inhibited
activity weaker than control compound LDN-193189 ([5]; C2C12 cells, BMP4, BRE-luciferase): 10 fold

SMILES: c1ccc2c(-c3cnn4cc(-c5ccc(N6CCNCC6)cc5)cnc34)ccnc2c1 [LDN-193189]
inhibition of BMP6-induced Smad1/5/8 phosphorylation [1]: potently inhibited
effect on TGF-β-induced phosphorylation of Smad2 [2]: no effect
IC50 ([3]; C2C12, read-out: apparent IC50, Smad1/5/8 phosphorylation): 10 nM
inhibition of Smad2 phosphorylation [4]: near complete inhibition
inhibition of Activin A-induced P-Smad2 [4]: weakly inhibited
inhibition at 0.1 µM (DDR2): 5.5%
inhibition at 1 µM (DDR2): 27%
IC50 (KDR): 215 nM
IC50 ([5]; Mus musculus, C2C12, read-out: IC50, BRE-luciferase): 10 nM
